Experimental data as given in paper PMC11111895, “Identification of a dCache-type chemoreceptor in Campylobacter jejuni that specifically mediates chemotaxis towards methyl pyruvate” (Frontiers in Microbiology, 2024).
Like-named read-outs stand apart in the source and are kept apart here.

Experiments:
[1] = system: H. pylori; set-up: method as in Matilla and Krell, 2023; Zhou et al., 2023; conditions: increase from 25 upon combination with amoxicillin and clarithromycin, clinical studies, ref Matilla and Krell, 2023, Zhou et al.; cited from earlier work
[2] = system: C. jejuni NCTC 11168ΩTlp11 cells; format: cell-based, Campylobacter jejuni
[3] = system: C. jejuni WT NCTC 11168 cells; format: cell-based, Campylobacter jejuni
[4] = system: C. jejuni 11168ΩTlp11/ΔCheY; format: cell-based, Campylobacter jejuni
[5] = molecular target: Tlp11-LBD; assay: Microscale thermophoresis (MST) of Tlp11-LBD; format: binding, C. jejuni ATCC 33560; conditions: for Kd: 250 nM protein
Description: The His-tag dye (MO-L018 RED-tris-NTA, NanoTemper, Germany) was adjusted to a final concentration of 25 nM and used to label the purified protein with a His-tag. The compound was diluted to a series of concentrations in phosphate-buffered saline ([Duan et al., 2023]) with 0.05% Tween 20 (PBS-T) buffer and mixed in a ratio of 1:1 with protein. The mixtures were loaded into capillaries (Monolith™ Series capillaries, NanoTemper) by means of capillary action. Thermophoresis was measured using a Monolith™ NT.115 (NanoTemper) instrument, with 40% excitation and 40% MST power configuration. The time-traces of changes in fluorescence, which reflected the thermophoretic movement of labeled protein affected by different concentrations of compound were recorded, and the dose–response curves were fitted with the ‘temperature jump and thermophoresis’ mode. Data analysis was performed using MO. Affinity Analysis version 2.3 (NanoTemper) and Prism version 8.0.2 (GraphPad Software, United States).
MST quantifies interaction affinities by detecting the direct movement of fluorescent molecules along temperature gradients in capillaries. Ligand binding changes the thermophoretic movement of proteins, which can be used to derive Kds, by sequentially scanning capillaries with different ligand concentrations. MST has been applied to the study of weak binding systems and validated to provide reliable results ([Linke et al., 2016]; [Gao et al., 2021]). […] We also tested the binding abilities of methyl pyruvate analogues to Tlp11-LBD using MST (Supplementary Table S3).

[6] = system: Tlp11[1-342]-Tar[200-553] (Tlp342Tar200); assay: Microfluidic chemotaxis of E. coli expressing hybrid chemoreceptor Tlp342Tar200; format: cell-based, E. coli VS188; conditions: for effect on chemotaxis towards methyl pyruvate of E. coli with Tlp342Tar200 / effect on responses to glucose of E. coli with Tlp342Tar200: cells incubated in 10 mM compound; for chemotactic response of E. coli expressing Tlp342Tar200 as the sole receptor: microfluidic device, 50 min
Description: The E. coli cells expressing hybrid chemoreceptor and GFP were grown in tryptone broth, up to an OD600 of 0.55, at 34°C, with shaking at 250 rpm. The cells were harvested by means of centrifugation at 5,000 rpm, washed twice with Tethering Buffer (10 mM KH2PO4, 10 mM K2HPO4, and 0.1 mM EDTA, pH 7.0), and resuspended in Tethering Buffer such that an OD600 of 5.5 was attained. The chemotactic responses of E. coli cells to the compounds were measured using a microfluidic device ([Si et al., 2012]). The collected E. coli cells were added to the sink pores of the device and allowed to freely diffuse into the observation channel for 40 min. Subsequently, the compound solution was added to the source pores, to establish a concentration gradient gradually in the observation channel of the device. Fluorescence intensity in the observation channel was detected using an LSM 800 laser scanning confocal microscope (Zeiss, Germany). Data were analyzed using ImageJ software.
To determine whether methyl pyruvate stimulates transmembrane signaling through Tlp11-LBD, we fused C. jejuni ATCC 33560 Tlp11-LBD with the cytoplasmic region of the E. coli chemoreceptor Tar to construct Tlp11-Tar hybrid chemoreceptors (Figure 3A). Five hybrid receptors with different fusion positions in the second transmembrane helix (TM2) were obtained: Tlp11[1-342]-Tar[200-553] (Tlp342Tar200), Tlp11[1-343]-Tar[200-553] (Tlp343Tar200), Tlp11[1-346]-Tar[204-553] (Tlp346Tar204), Tlp11[1-347]-Tar[204-553] (Tlp347Tar204), and Tlp11[1-348]-Tar[204-553] (Tlp348Tar204) (Supplementary Figure S5A). To verify the activities of these hybrid chemoreceptors, we expressed each protein as a chimera in green fluorescent protein (GFP)-labeled E. coli VS188 without any other chemoreceptors, such that each hybrid receptor served as the only chemoreceptor in the E. coli. […] These chemotactic responses triggered by glucose through the phosphotransferase system are independent of the chemoreceptor LBD ([Neumann et al., 2012]). […] Thus, we used this hybrid receptor for subsequent chemotaxis measurements.

[7] = system: C. jejuni ATCC 33560; assay: Growth curves in Minimal Essential Medium; format: cell-based, Campylobacter jejuni; conditions: Minimal Essential Medium with fetal bovine serum, shaking; methyl pyruvate at concentrations above 1 mM
Description: The C. jejuni ATCC 33560, C. jejuni WT NCTC 11168 and 11168ΩTlp11 cells were grown on a MH agar plate overnight, at 37°C, under microaerobic conditions. The colonies were suspended in PBS ([Duan et al., 2023]), pH 7.2, inoculated into Minimal Essential Medium broth (Life Technologies) containing 10% fetal bovine serum to an initial OD600 of 0.01, and grown at 37°C, 100 rpm, under microaerobic conditions. When required, Minimal Essential Medium was supplemented with different concentrations of methyl pyruvate or pyruvate (both from Macklin, China).

[8] = system: Tlp11-LBD; set-up: method as in Day et al., 2016; conditions: ref Day et al., 2016; cited from earlier work
[9] = methyl pyruvate at pH 7.0, read-out: Kd of Tlp11-LBD binding

In the case of `COc1ccc2[nH]c([S+]([O-])Cc3ncc(C)c(OC)c3C)nc2c1` (centres unmarked) [omeprazole], the “eradication rate of H. pylori” value [1] is given as 95%.
For `O=CO` [formate], the chemotactic response [2] was “attractant response”, the chemotactic response [3] was “attractive response” and the chemotactic response [4] was “no chemotaxis”.
In the case of `c1ccc2ncccc2c1` [quinoline, Quinoline], the Kd [5, 9] is reported as 905 ± 180 µM, the chemotactic response [2] is reported as “neither WT NCTC 11168 nor 11168ΩTlp11 cells exhibited chemotaxis” and the chemotactic response [3] is reported as “neither WT NCTC 11168 nor 11168ΩTlp11 cells exhibited chemotaxis”. The “effect on chemotaxis towards methyl pyruvate of E. coli with Tlp342Tar200” value [6] was “lost the chemotaxis towards methyl pyruvate”, the “effect on responses to glucose of E. coli with Tlp342Tar200” value [6] was “not affected” and the “chemotactic response of E. coli expressing Tlp342Tar200 as the sole receptor” value [6] was “failed to elicit a chemotactic response”.
For `CC(=O)C(=O)O` [pyruvate, Pyruvate], the “binding to Tlp11-LBD” value ([5]; maximum concentration 2.5 mM) was “did not bind” and the “effect on growth of C. jejuni ATCC 33560” value [7] was “promotion of the growth”.
For `Cc1ccccc1` [toluene, Toluene], the Kd [5, 9] was 844 ± 172 µM, the chemotactic response ([2]; 11168ΩTlp11 cells, microfluidic device, 30 min) was “neither WT NCTC 11168 nor 11168ΩTlp11 cells exhibited chemotaxis” and the chemotactic response ([3]; WT NCTC 11168 cells, microfluidic device, 30 min) was “neither WT NCTC 11168 nor 11168ΩTlp11 cells exhibited chemotaxis”. For the same compound, the “effect on chemotaxis towards methyl pyruvate of E. coli with Tlp342Tar200” value [6] was “lost the chemotaxis towards methyl pyruvate”, the “effect on responses to glucose of E. coli with Tlp342Tar200” value [6] was “not affected” and the “chemotactic response of E. coli expressing Tlp342Tar200 as the sole receptor” value [6] was “failed to elicit a chemotactic response”.
For `O=C[C@H](O)[C@@H](O)[C@@H](O)[C@H](O)CO` [galactose], the “binding to Tlp11-LBD” value [8] is listed as “bound directly”.
For `CCOC(=O)C(C)=O` [ethyl pyruvate, Ethyl pyruvate], the Kd ([5]; read-out: Kd of Tlp11-LBD binding) was 2360 ± 170 µM.
